Active and inactive are the calls of the source.
Tests used:
[1] = biological target: CAAX prenyl protease 2 (Saccharomyces cerevisiae S288c, UniProt Q03530); assay type: biochemical
[2] = biological target: Polyadenylate-binding protein 1 (Homo sapiens, UniProt P11940); assay: PABP inhibition in translation initiation, SAR follow-up (AID 435018); assay type: functional
[3] = biological target: Eukaryotic translation initiation factor 4H (Homo sapiens, UniProt Q15056); assay: inhibitors of translation initiation factor eIF4H – SAR follow-up (AID 435011); assay type: functional
[4] = biological target: Delta-type opioid receptor (Homo sapiens, UniProt P41143); assay: SAR Analysis of Antagonists of the DOR Receptor using an Image-Based Assay - Set 3. [Related pubchem assays (depositor defined):AID1777, AID1785]; assay type: functional;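 note: U2OS cells expressing DOR1 and beta-arrestin GFP stimulated with 100 nM SNC80; imaging of GFP-tagged beta-arrestin moving into spots after receptor activation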
[5] = biological target: Mu-type opioid receptor (Homo sapiens, UniProt P35372); assay: SAR Analysis of Antagonists of the MOR Receptor using an Image-Based Assay - Set 3. [Related pubchem assays (depositor defined):AID1777, AID1785, AID1786, AID1966, AID2133, AID2136, AID2284, AID2285, AID2420]; assay type: functional
[6] = biological target: T1, Kappa-type opioid receptor (Homo sapiens, UniProt P41145); assay: SAR analysis of small molecule antagonists of the kappa opioid receptor via a luminescent beta-arrestin assay - Set 3. [Related pubchem assays (depositor defined):AID1777, AID1778, AID1785, AID1786, AID1966, AID2133, AID2136, AID2285, AID2495]; assay type: functional
[7] = biological target: T1, Kappa-type opioid receptor; assay: SAR analysis of Antagonists of the Kappa Opioid Receptor (KOR) using an Image-Based Assay - Set 3. [Related pubchem assays (depositor defined):AID1777, AID1785]; assay type: functional
[8] = biological target: Large T antigen (Simian virus 40, UniProt P03070); assay type: functional, Betapolyomavirus macacae;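 note: Confirmatory-stage PubChem screen for compounds that inhibit SV40 T antigen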
[9] = biological target: T2, Sentrin-specific protease 6 (Homo sapiens, UniProt Q9GZR1); assay type: functional;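 note: Luminescence-based dose-response confirmatory assay of SENP6 inhibition, following up an ultra-high-throughput screen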
T2 sequence (Q9GZR1 whole entry): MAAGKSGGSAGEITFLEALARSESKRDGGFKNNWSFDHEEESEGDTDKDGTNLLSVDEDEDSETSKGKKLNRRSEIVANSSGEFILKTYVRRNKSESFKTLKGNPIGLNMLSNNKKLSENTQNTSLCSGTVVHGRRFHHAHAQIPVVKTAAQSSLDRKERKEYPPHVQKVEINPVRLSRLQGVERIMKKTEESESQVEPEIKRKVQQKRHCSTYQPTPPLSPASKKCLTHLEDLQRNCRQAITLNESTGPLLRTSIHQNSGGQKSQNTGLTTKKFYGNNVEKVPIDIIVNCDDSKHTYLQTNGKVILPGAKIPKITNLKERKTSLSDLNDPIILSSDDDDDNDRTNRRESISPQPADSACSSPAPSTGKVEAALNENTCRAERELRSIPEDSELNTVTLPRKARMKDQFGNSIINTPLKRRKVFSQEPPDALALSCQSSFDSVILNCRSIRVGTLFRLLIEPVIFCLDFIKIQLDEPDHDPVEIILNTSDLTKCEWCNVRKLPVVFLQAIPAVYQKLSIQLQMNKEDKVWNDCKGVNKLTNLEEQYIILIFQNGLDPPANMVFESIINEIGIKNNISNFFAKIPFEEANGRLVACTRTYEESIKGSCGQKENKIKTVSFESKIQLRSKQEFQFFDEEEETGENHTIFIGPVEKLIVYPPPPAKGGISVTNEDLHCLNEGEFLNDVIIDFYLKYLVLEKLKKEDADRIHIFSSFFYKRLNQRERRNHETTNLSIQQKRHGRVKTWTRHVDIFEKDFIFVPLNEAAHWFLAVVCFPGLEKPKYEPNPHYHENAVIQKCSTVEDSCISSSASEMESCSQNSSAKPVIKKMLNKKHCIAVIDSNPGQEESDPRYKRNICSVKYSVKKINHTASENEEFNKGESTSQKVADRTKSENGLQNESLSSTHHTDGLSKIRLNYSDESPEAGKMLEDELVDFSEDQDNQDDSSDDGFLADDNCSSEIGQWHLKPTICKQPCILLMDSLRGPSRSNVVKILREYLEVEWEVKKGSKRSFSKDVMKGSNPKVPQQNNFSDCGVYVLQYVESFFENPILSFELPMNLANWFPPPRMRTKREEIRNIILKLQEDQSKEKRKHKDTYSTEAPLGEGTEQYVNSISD

[10] = biological target: T3, Sentrin-specific protease 7 (Homo sapiens, UniProt Q9BQF6); assay type: functional;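 note: Luminescence-based dose-response confirmation of ultra-high-throughput screening hits, measuring inhibition of SENP7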
T3 sequence (Q9BQF6 whole entry): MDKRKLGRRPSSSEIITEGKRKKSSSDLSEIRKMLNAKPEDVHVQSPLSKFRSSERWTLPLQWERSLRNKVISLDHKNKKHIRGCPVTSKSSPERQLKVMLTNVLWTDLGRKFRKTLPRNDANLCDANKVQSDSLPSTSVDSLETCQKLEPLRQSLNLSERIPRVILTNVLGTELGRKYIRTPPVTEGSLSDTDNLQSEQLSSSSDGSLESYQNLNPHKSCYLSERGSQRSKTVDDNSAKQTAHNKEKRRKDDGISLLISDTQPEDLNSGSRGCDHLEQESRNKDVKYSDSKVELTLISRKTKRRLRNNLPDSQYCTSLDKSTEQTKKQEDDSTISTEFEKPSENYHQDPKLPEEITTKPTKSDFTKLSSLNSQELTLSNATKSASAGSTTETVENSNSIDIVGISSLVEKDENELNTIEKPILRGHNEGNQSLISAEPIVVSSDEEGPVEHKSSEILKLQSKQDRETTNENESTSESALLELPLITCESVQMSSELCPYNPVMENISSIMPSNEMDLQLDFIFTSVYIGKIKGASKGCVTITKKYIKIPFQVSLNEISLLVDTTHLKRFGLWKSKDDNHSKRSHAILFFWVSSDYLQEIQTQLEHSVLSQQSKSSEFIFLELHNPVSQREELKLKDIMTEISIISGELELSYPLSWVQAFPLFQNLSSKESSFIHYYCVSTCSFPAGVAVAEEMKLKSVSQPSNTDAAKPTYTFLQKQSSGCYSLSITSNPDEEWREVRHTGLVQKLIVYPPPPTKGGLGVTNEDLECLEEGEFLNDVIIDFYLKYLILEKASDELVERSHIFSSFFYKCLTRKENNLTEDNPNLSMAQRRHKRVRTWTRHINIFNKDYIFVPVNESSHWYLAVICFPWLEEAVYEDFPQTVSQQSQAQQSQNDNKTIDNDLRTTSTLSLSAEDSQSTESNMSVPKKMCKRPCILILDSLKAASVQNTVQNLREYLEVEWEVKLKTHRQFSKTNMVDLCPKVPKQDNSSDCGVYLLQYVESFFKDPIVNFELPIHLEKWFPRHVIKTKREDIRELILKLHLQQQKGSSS

[11] = biological target: T4, Sentrin-specific protease 8 (Homo sapiens, UniProt Q96LD8); assay type: functional;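 note: luminescence read-out of SENP8 inhibition, dose-response confirmation following an ultra-high-throughput screen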
T4 sequence (Q96LD8 whole entry): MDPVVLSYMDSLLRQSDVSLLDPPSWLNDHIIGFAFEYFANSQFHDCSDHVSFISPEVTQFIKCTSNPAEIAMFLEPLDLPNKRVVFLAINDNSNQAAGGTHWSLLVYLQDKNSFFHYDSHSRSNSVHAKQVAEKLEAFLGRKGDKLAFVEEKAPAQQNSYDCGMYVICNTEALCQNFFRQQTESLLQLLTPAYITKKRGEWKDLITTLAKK

[12] = biological target: T5, Caspase-3 (Homo sapiens, UniProt P42574); assay type: functional;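 note: Dose-response selectivity test against caspase-3 for candidate inhibitors of sentrin-specific proteases (SENPs)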
T5 sequence (P42574 whole entry): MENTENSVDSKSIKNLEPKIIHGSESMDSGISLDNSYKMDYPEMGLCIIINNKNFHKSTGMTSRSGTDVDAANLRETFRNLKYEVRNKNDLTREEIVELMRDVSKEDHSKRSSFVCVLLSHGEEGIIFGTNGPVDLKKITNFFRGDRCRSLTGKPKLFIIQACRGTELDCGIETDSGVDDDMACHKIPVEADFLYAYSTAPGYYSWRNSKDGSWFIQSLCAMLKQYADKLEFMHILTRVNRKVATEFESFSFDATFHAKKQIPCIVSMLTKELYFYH

[13] = biological target: Bcl-2-like protein 10 (Homo sapiens, UniProt Q9HD36); assay: Bcl-B/TR3 peptide binding disruption – biochemical, fluorescence polarization, FITC-TR3 peptide, selectivity assay for Bfl-1 inhibitor project, primary screen (AID 748);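 note: fluorescence polarization from a fluorescein-labelled TR3 peptide binding purified Bcl-B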
Bcl-2-like protein 10, sequence (Q9HD36 whole entry): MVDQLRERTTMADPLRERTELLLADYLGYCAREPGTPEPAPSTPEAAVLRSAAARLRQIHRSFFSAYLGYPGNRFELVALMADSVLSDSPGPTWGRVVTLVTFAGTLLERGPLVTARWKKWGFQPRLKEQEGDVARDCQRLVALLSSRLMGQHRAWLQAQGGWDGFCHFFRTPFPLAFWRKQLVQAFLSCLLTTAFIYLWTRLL

T1 sequence (P41145 whole entry): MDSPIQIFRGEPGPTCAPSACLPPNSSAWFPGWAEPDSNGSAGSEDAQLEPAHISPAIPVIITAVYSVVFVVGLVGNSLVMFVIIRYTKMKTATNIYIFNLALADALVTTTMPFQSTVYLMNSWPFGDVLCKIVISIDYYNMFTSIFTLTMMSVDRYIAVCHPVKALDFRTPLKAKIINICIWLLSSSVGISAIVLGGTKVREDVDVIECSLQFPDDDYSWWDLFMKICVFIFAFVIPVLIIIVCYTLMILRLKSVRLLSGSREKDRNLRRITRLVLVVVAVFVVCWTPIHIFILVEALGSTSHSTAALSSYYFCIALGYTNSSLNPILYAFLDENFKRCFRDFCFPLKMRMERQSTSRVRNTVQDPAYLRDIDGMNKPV
Mu-type opioid receptor, sequence (P35372 whole entry): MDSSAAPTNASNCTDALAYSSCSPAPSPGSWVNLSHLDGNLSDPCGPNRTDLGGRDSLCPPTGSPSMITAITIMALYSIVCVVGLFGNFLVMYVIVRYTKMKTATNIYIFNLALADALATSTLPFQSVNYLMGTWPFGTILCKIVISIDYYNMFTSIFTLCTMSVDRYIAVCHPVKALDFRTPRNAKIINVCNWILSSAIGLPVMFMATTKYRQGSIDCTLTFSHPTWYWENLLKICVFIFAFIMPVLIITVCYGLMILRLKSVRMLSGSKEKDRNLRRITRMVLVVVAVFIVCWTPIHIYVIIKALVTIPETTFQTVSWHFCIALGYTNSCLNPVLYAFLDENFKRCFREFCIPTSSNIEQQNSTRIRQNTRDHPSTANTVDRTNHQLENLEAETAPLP
Delta-type opioid receptor, sequence (P41143 whole entry): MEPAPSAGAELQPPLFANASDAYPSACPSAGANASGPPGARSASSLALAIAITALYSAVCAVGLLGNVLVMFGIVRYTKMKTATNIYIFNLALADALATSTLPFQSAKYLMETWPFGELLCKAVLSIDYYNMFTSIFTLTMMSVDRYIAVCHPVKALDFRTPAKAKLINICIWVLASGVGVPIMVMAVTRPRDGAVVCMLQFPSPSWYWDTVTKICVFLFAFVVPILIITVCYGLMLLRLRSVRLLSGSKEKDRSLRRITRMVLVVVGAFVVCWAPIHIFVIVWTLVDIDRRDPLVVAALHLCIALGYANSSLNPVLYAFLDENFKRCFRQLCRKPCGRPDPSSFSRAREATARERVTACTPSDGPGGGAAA
Polyadenylate-binding protein 1, sequence (P11940 whole entry): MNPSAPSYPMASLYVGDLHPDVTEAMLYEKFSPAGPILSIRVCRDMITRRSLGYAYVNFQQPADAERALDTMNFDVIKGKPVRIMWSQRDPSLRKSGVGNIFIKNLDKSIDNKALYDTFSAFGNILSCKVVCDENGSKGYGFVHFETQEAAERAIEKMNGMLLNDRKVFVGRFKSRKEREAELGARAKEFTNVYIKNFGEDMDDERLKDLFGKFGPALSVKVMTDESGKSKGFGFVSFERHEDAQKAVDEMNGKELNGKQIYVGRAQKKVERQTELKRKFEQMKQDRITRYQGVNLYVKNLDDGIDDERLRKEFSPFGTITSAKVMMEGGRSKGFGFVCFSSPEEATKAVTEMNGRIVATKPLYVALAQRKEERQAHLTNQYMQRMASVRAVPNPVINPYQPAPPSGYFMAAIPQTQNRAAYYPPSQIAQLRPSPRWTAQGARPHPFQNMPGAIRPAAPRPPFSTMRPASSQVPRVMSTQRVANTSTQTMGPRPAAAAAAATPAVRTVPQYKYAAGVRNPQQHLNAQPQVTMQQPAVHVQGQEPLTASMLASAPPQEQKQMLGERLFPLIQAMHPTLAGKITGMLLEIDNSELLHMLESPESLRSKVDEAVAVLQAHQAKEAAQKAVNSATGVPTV
CAAX prenyl protease 2, sequence (Q03530 whole entry): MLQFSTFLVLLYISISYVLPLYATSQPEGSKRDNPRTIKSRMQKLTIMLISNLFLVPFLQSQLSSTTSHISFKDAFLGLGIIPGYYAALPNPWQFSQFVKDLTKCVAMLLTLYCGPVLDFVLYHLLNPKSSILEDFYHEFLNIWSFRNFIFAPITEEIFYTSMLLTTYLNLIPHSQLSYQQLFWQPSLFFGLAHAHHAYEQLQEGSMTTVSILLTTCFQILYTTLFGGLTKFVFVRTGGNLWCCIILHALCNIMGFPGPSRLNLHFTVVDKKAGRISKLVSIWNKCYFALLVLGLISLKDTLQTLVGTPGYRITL
Large T antigen, sequence (P03070 whole entry): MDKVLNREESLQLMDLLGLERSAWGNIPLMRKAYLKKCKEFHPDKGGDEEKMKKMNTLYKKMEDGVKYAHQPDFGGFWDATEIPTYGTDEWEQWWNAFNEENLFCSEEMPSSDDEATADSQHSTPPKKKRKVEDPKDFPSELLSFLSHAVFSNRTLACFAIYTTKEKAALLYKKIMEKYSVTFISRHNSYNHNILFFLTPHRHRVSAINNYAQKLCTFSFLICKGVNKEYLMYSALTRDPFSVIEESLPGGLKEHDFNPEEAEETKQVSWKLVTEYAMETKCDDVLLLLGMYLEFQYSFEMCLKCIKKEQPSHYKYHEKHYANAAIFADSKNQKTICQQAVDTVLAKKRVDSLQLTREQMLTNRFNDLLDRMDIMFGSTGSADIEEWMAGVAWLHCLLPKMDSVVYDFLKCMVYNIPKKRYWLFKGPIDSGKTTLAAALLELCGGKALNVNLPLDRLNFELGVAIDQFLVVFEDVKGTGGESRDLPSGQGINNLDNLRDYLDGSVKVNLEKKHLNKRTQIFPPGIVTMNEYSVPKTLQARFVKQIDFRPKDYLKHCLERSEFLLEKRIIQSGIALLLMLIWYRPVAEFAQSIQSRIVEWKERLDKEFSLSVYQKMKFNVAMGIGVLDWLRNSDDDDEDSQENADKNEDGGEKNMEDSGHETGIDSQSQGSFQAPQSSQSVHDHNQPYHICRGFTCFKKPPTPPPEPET

Row | IC50 [4] | IC50 [5] | IC50 [6] | IC50 [7] | SMILES | IC50 [2] | IC50 [3] | also measured
1 | – | – | – | – | O=S(=O)(c1ccccc1)c1nc(-c2ccco2)oc1N1CCCCC1 | – | – | AC50 [1]: 7.38 µM (active)
2 | – | – | – | – | CS(=O)(=O)c1ccccc1C(=O)Nc1cccc2ncccc12 | 20.2 µM (active) | 16.1 µM (active) | –
3 | – | – | – | – | O=C(Nc1ccccc1Cl)C1CCN(C(=O)c2cccs2)CC1 | > 100 µM (inactive) | > 100 µM (inactive) | –
4 | > 32 µM (inactive) | > 32 µM (inactive) | > 20 µM (inactive) | > 32 µM (inactive) | O=C(NCCN1Cc2ccccc2C1)c1ccc(CNS(=O)(=O)c2ccc(Br)cc2)cc1 | – | – | –
5 | > 32 µM (inactive) | > 32 µM (inactive) | > 20 µM (inactive) | > 32 µM (inactive) | CN1CCN(CCCNC(=O)Cn2c(=O)c3cccn3c3cccnc32)CC1 | – | – | –
6 | – | – | – | – | Cc1csc(N/N=C/c2ccc(O)c([N+](=O)[O-])c2)n1 | – | – | IC50 [8]: 22.1 µM (active); IC50 [9]: 9.25 µM (active); IC50 [10]: 4.19 µM (active); IC50 [11]: 8.45 µM (active); IC50 [12]: 3.15 µM (active); IC50 [13]: > 100 µM (inactive)

Reference: ChEMBL document CHEMBL1201862, “PubChem BioAssay data set” (2004)
